According to patent US11814367B2, “Inhibitors of glycogen synthase 1 (GYS1) and methods of use thereof” (Maze Therapeutics, Inc., priority 2021, dated 2023):

Key:
[1] = molecular target: hGYS2 enzyme (recombinant hGYS2/GN1 protein) (Homo sapiens (Human), UniProt P54840); assay: GYS2 coupled enzyme assay (PK/LDH); type: biochemical; conditions: geometric mean of at least 2 assay runs on separate days, read-out: Avg_IC50
Description: The GYS2 coupled enzyme assay is a kinetic biochemical assay that indirectly quantifies the rate of glycogen synthesis by coupling the conversion of GYS2 substrate UDP-glucose into UDP with downstream enzymatic reactions. UDP is released from UDP-glucose as glucose monomers are linked into the growing glycogen strand by GYS2. The coupled assay then proceeds with pyruvate kinase utilizing UDP and phospho(enol)pyruvate (PEP) to form pyruvate. Lactate dehydrogenase then converts pyruvate and NADH into lactate and NAD+. Oxidation of NADH to NAD+ can be measured continuously with a plate reader by quantifying the decrease in NADH absorbance at 340 nm over time.
Compounds that inhibit the hGYS2 enzyme and, subsequently, the downstream conversion of NADH to NAD+, were tested using assay ready plates (black, clear bottom 384 well plates) in a final DMSO reaction volume of 2.5% DMSO. The Assay Buffer contained 50 mM Tris pH 7.5, 2 mM MgCl2, and 100 mM KCl. Fresh stocks of BSA at a final concentration of 0.02% and TCEP 1 mM were added before splitting buffer into hGYS2 buffer and substrate buffer. To the hGYS2 buffer, rabbit liver glycogen was added at a final concentration of 0.2% glycogen. Glucose-6-Phosphate was added at 2 mM, recombinant hGYS2/GN1 protein was added at 200 nM to the substrate buffer, phosphoenolpyruvate (PEP) was added at 2 mM, UDP-Glucose was added at 2 mM, NADH was added at 0.6 mM, and Pyruvate Kinase/Lactate Dehydrogenase was added at 20 units/mL. The reaction was initiated by mixing hGYS2 buffer and substrate buffer at a 1:1 ratio. Both buffers were plated using a liquid dispensing device with hGYS2 buffer plated first followed by the substrate buffer. Plates were spun briefly to eliminate air bubbles and are immediately read in continuous mode at an absorbance of 340 nm, for 10 time points in one-minute increments, for a total of 10 minutes. The slope from these 10 time points was normalized to the positive and negative control wells. The duplicate % inhibition values are then averaged and fit to a Hill equation for dose response according to the Levenberg-Marquardt algorithm with the Hill equation maximum set to 100 and the minimum set to 0.
The results are shown in Table 4 below, which reports the IC50 of each compound. Unless otherwise specified, IC50 values are reported as the geometric mean of at least 2 assay runs on separate days. As shown in the table below, the compounds of the present invention are not potent inhibitors of human GYS2. Unless otherwise specified, IC50 values are reported as the geometric mean of at least two assay runs on separate days. Each run represents the average of a technical replicate, where each compound was assayed twice in the same plate. A superscript “#” symbol in Table 4 indicates results from a single assay run.

[2] = molecular target: hGYS1 enzyme (recombinant hGYS1/GN1 protein) (Homo sapiens (Human), UniProt P13807); assay: GYS1 coupled enzyme assay (PK/LDH); type: biochemical; conditions: hGYS1/GN1 50 nM, UDP-Glucose 0.8 mM, G6P 1 mM; geometric mean of at least 2 runs
Sequence of hGYS1 enzyme (recombinant hGYS1/GN1 protein) (P13807 whole entry): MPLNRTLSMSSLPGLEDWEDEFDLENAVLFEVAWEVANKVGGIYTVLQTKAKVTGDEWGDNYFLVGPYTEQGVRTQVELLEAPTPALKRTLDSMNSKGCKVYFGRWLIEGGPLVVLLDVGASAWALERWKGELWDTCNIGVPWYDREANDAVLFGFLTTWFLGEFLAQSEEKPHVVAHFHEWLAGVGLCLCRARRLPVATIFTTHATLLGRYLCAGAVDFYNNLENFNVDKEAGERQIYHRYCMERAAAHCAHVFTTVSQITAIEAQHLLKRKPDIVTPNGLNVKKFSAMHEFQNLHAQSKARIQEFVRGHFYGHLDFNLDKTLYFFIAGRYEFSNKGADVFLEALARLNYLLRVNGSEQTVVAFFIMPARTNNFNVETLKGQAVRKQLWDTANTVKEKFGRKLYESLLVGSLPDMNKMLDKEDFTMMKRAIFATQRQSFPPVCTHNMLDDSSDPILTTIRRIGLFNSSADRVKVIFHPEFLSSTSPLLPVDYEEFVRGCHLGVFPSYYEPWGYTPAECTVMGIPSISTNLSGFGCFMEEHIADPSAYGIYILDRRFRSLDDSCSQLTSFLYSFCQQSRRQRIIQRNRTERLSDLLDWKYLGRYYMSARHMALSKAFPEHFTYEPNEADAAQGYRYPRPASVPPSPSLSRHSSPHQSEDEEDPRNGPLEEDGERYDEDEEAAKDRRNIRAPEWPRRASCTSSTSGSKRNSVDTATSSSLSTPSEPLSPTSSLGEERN
Sequence of hGYS1 enzyme (recombinant hGYS1/GN1 protein) (P46976 whole entry partner): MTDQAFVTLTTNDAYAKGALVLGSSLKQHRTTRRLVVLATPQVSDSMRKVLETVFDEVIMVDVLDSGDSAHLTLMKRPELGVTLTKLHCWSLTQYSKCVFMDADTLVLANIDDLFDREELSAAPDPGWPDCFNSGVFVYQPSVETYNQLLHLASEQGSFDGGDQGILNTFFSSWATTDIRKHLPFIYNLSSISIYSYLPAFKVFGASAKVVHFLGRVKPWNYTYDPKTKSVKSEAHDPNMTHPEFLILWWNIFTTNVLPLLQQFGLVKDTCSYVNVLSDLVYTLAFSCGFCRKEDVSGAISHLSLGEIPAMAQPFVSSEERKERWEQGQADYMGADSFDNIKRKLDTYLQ

Sequence of hGYS2 enzyme (recombinant hGYS2/GN1 protein) (P54840 whole entry): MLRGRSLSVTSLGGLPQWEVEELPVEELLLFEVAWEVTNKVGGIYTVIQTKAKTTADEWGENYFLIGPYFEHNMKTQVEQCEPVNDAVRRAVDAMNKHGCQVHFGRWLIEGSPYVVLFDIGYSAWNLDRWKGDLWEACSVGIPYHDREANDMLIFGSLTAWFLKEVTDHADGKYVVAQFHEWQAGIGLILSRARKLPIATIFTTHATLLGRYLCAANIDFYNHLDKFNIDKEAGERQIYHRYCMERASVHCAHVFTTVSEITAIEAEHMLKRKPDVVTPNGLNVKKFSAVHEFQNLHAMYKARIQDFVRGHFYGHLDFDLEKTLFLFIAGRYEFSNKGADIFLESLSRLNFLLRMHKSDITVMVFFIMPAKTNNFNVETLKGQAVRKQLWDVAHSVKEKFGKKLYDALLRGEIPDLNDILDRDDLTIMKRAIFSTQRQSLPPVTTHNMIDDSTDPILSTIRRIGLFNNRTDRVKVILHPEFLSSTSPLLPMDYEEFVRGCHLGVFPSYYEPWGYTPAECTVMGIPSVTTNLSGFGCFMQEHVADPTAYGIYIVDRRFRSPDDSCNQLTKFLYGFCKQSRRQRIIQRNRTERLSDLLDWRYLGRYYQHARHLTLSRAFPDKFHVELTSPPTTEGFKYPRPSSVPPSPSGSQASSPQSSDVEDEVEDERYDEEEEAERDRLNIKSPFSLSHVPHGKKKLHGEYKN
Sequence of hGYS2 enzyme (recombinant hGYS2/GN1 protein) (P46976 whole entry partner): as the sequence (P46976 whole entry partner) above

Row | IC50 [1] | IC50 [2] | SMILES
1 | > 100 µM | 42 nM | Cc1cn(CC(=O)N2C[C@H](F)C[C@H]2C(=O)N[C@@H](c2ccccc2)c2ccc(C(C)C)c(F)n2)c(=O)n(C)c1=O (relative stereo) [Compound 777, (2S,4R)-1-[2-(3,5-dimethyl-2,4-dioxo-1,2,3,4-tetrahydropyrimidin-1-yl)acetyl]-4-fluoro-N-[(R*)-[6-fluoro-5-(propan-2-yl)pyridin-2-yl](phenyl)methyl] pyrrolidine-2-carboxamide]
2 | > 100 µM | 602 nM | CC(=O)N1C[C@H](F)C[C@H]1C(=O)NC(c1ccccc1)c1ccc(C2CCC2)cn1 (single isomer, unassigned) [Compound 603, (2S,4R)-1-acetyl-N-[(S) or (R)-(5-cyclobutylpyridin-2-yl) (phenyl)methyl]-4-fluoropyrrolidine-2-carboxamide]
3 | > 100 µM | 142 nM | CC(C)c1ccc(C(NC(=O)[C@@H]2C[C@@H](F)CN2C(=O)Cc2cnn[nH]2)c2ccc(N)nc2)cc1F (single isomer, unassigned) [Compound 620, (2S,4R)-N-[(R) or (S)-(6-aminopyridin-3-yl)[3-fluoro-4-(propan-2-yl)phenyl]methyl]-4-fluoro-1-[2-(1H-1,2,3-triazol-5-yl)acetyl]pyrrolidine-2-carboxamide]
4 | > 100 µM | 43 nM | CC(C)c1c(F)cc(C(NC(=O)[C@@H]2C[C@@H](F)CN2C(=O)Cc2ncco2)c2ccccc2)cc1F (single isomer, unassigned) [Compound 661, (2S,4R)-N-[(S) or (R)-[3,5-difluoro-4-(propan-2-yl)phenyl](phenyl)methyl]-4-fluoro-1-[2-(1,3-oxazol-2-yl)acetyl]pyrrolidine-2-carboxamide]
5 | > 100 µM | 227 nM | O=C(NC(c1ccccc1)c1cc(F)c(C2CC2)c(F)c1)[C@@H]1C[C@@H](F)CN1C(=O)Cc1ncco1 (single isomer, unassigned) [Compound 662]
6 | > 100 µM | 106 nM | CC(C)c1ccc([C@@H](NC(=O)[C@@H]2C[C@@H](F)CN2C(=O)C(C)n2cnnn2)c2ccccc2)cc1F (single isomer, unassigned) [Compound 767, (2S,4R)-4-fluoro-N-[(S)-[3-fluoro-4-(propan-2-yl)phenyl](phenyl)methyl]-1-[(2S) or (2R)-2-(1H-1,2,3,4-tetrazol-1-yl)propanoyl]pyrrolidine-2-carboxamide]
7 | > 100 µM | 62 nM | CC(C)c1ccc([C@@H](NC(=O)[C@@H]2C[C@@H](F)CN2C(=O)C(C)c2cnn[nH]2)c2ccccc2)cc1F (single isomer, unassigned) [Compound 770, (2S,4R)-4-fluoro-N-[(S)-[3-fluoro-4-(propan-2-yl)phenyl](phenyl)methyl]-1-[(2S) or (2R)-2-(1H-1,2,3-triazol-5-yl)propanoyl]pyrrolidine-2-carboxamide]
8 | > 100 µM | 211 nM | CC(=O)N1CC[C@@]2(C1)C(=O)NCC2C(=O)N1C[C@H](F)C[C@H]1C(=O)N[C@@H](c1ccccc1)c1ccc(C(C)C)cc1 (stereo in doubt) [Compound 6, (2S,4R)-1-[(4S,5R)-7-acetyl-7-oxo-2,7-diazaspiro[4.4]nonane-4-carbonyl]-4-fluoro-N-[(S)-phenyl[4-(propan-2-yl)phenyl]methyl]pyrrolidine-2-carboxamide]
9 | > 100 µM | – | CC(C)c1ccc([C@@H](NC(=O)[C@@H]2C[C@@H](F)CN2C(=O)Cc2ncccn2)c2ccccc2)cc1 [Compound 28, (2S,4R)-4-fluoro-N-[(S)-phenyl[4-(propan-2-yl)phenyl]methyl]-1-[2-(pyrimidin-2-yl)acetyl]pyrrolidine-2-carboxamide]
10 | – | 2220 nM | CC(C)c1ccc([C@@H](NC(=O)[C@@H]2C[C@@H](F)CN2C(=O)c2ccc3c(n2)NC(=O)CC3)c2ccccc2)cc1 [Compound 704, (2S,4R)-4-fluoro-1-(7-oxo-5,6,7,8-tetrahydro-1,8-naphthyridine-2-carbonyl)-N-[(S)-phenyl[4-(propan-2-yl)phenyl]methyl]pyrrol-idine-2-carboxamide]
11 | – | 1720 nM | CC(C)COc1cc(C(=O)N2C[C@H](F)C[C@H]2C(=O)N[C@@H](c2ccccc2)c2ccc(C(C)C)cc2)ccn1 [Compound 705, (2S,4R)-4-fluoro-1-[2-(2-methylpropoxy)pyridine-4-carbonyl]-N-[(S)-phenyl[4-(propan-2-yl)phenyl]methyl]pyrrol-idine-2-carboxamide]
12 | – | 1990 nM | CC(C)c1ccc([C@@H](NC(=O)[C@@H]2C[C@@H](F)CN2C(=O)c2cc(-n3ccnc3)ccn2)c2ccccc2)cc1 [Compound 707, (2S,4R)-4-fluoro-1-[4-(1H-imidazol-1-yl)pyridine-2-carbonyl]-N-[(S)-phenyl[4-(propan-2-yl)phenyl]methyl]pyrrol-idine-2-carboxamide]
13 | – | 2510 nM | CC(C)c1ccc([C@@H](NC(=O)[C@@H]2C[C@@H](F)CN2C(=O)C(=O)Nc2cccnc2)c2ccccc2)cc1 [Compound 708, (2S,4R)-4-fluoro-N-[(S)-phenyl[4-(propan-2-yl)phenyl]methyl]-1-{[(pyridin-3-yl)carbamoyl]carbonyl} pyrrolidine-2-carboxamide]
14 | – | 1140 nM | COc1cc(C(=O)N2C[C@H](F)C[C@H]2C(=O)N[C@@H](c2ccccc2)c2ccc(C(C)C)cc2)nn1C [Compound 709, (2S,4R)-4-fluoro-1-(5-methoxy-1-methyl-1H-pyrazole-3-carbonyl)-N-[(S)-phenyl[4-(propan-2-yl)phenyl]methyl]pyrrol-idine-2-carboxamide]
15 | – | 105 nM | CC(C)c1ccc([C@@H](NC(=O)[C@@H]2C[C@@H](F)CN2C(=O)Cn2nncc2N2CCC2)c2ccccc2)nc1 [Compound 715, (2S,4R)-1-{2-[5-(azetidin-1-yl)-1H-1,2,3-triazol-1-yl]acetyl}-4-fluoro-N-[(S)-phenyl[5-(propan-2-yl)pyridin-2-yl]methyl]pyrrolidine-2-carboxamide]
16 | – | 55 nM | Cc1nc(CC(=O)N2C[C@H](F)C[C@H]2C(=O)N[C@@H](c2ccccc2)c2ccc(C3CC3)c(F)n2)oc1C [Compound 761, (2S,4R)-N-[(S)-(5-cyclopropyl-6-fluoropyridin-2-yl)(phenyl)methyl]-1-[2-(4,5-dimethyl-1,3-oxazol-2-yl)acetyl]-4-fluoropyrrolidine-2-carboxamide]
17 | – | 27 nM | O=C(N[C@@H](c1ccccc1)c1ccc(C2CC2)c(F)n1)[C@@H]1C[C@@H](F)CN1C(=O)Cn1nncc1N1CCC1 [Compound 762, (2S,4R)-1-{2-[5-(azetidin-1-yl)-1H-1,2,3-triazol-1-yl]acetyl}-N-[(S)-(5-cyclopropyl-6-fluoropyridin-2-yl)(phenyl)methyl]-4-fluoropyrrolidine-2-carboxamide]
18 | – | 466 nM | O=C(N[C@@H](c1ccccc1)c1ccc(C2CC2)c(F)n1)[C@@H]1[C@@H](O)[C@H](F)CN1C(=O)Cn1nnnc1C(F)F [Compound 763, (2S,3R,4R)-N-[(S)-(5-cyclopropyl-6-fluoropyridin-2-yl)(phenyl)methyl]-1-{2-[5-(difluoromethyl)-1H-1,2,3,4-tetrazol-1-yl]acetyl}-4-fluoro-3-hydroxypyrrolidine-2-carboxamide]
19 | – | 155 nM | O=C(N[C@@H](c1ccccc1)c1ccc(C2CC2)c(F)n1)[C@@H]1[C@H](O)[C@@H](F)CN1C(=O)Cn1nnnc1C(F)F [Compound 764, (2S,3S,4S)-N-[(S)-(5-cyclopropyl-6-fluoropyridin-2-yl)(phenyl)methyl]-1-{2-[5-(difluoromethyl)-1H-1,2,3,4-tetrazol-1-yl]acetyl}-4-fluoro-3-hydroxypyrrolidine-2-carboxamide]
20 | – | 12 nM | CC(C)c1ccc([C@@H](NC(=O)[C@@H]2C[C@@H](F)CN2C(=O)Cn2nncc2N2CCC2)c2ccccc2)nc1F [Compound 808, (2S,4R)-1-{2-[5-(azetidin-1-yl)-1H-1,2,3-triazol-1-yl]acetyl}-4-fluoro-N-[(S)-[6-fluoro-5-(propan-2-yl)pyridin-2-yl](phenyl)methyl] pyrrolidine-2-carboxamide]
